Read-outs that look alike come from different tables or passages of the source. Marks after values point to notes of the source that are not given here.
What was measured:
[1] = system: Japanese patients with T2DM; assay: Serum insulin concentrations, 7-day once-daily dosing; assay type: in vivo, human
[2] = system: Japanese patients with T2DM; assay: Urine volume, water intake and body weight, 7-day once-daily dosing; assay type: in vivo, human
[3] = system: Japanese patients with T2DM; assay: Sigmoid E max model regression of change in UGE on plasma luseogliflozin AUC; assay type: in vivo, human
[4] = system: SGLT2; conditions: read-out: 50% inhibitory concentration (IC50); cited from earlier work
[5] = system: SGLT1; conditions: SGLT2 vs SGLT1; cited from earlier work
[6] = system: Japanese patients with T2DM; conditions: cited from earlier work

SMILES: CCOc1ccc(Cc2cc([C@@H]3S[C@H](CO)[C@@H](O)[C@H](O)[C@H]3O)c(OC)cc2C)cc1 [Luseogliflozin, (1S)-1,5-anhydro-1-[5-(4-ethoxybenzyl)-2-methoxy-4-methylphenyl]-1-thio-D-glucitol]
- Serum insulin AUC0–4h (after breakfast) LS mean difference vs placebo (95% CI) ([1]; 0.5 mg OD, Day 7): −32.3 (−62.8, −1.82)* μIU h/mL
- Serum insulin AUC0–4h (after breakfast) ([1]; 1 mg OD, Day 1): 161 ± 67.9 μIU h/mL
- Serum insulin AUC0–4h (after breakfast) LS mean difference vs placebo (95% CI) ([1]; 1 mg OD, Day 1): −12.1 (−39.4, 15.3) μIU h/mL
- Serum insulin AUC0–4h (after breakfast) ([1]; 1 mg OD, Day 7): 125 ± 43.4 μIU h/mL
- Serum insulin AUC0–4h (after breakfast) LS mean difference vs placebo (95% CI) ([1]; 1 mg OD, Day 7): −36.1 (−64.5, −7.72)* μIU h/mL
- Serum insulin AUC0–4h (after breakfast) ([1]; 2.5 mg OD, Day 1): 101 ± 56.1 μIU h/mL
- Serum insulin AUC0–4h (after breakfast) LS mean difference vs placebo (95% CI) ([1]; 2.5 mg OD, Day 1): −32.7 (−60.4, −4.93)* μIU h/mL
- Serum insulin AUC0–4h (after breakfast) ([1]; 2.5 mg OD, Day 7): 75.1 ± 29.4 μIU h/mL
- Serum insulin AUC0–4h (after breakfast) LS mean difference vs placebo (95% CI) ([1]; 2.5 mg OD, Day 7): −56.7 (−85.4, −27.9)* μIU h/mL
- Serum insulin AUC0–4h (after breakfast) ([1]; 5 mg OD, Day 1): 190 ± 118 μIU h/mL
- Serum insulin AUC0–4h (after breakfast) LS mean difference vs placebo (95% CI) ([1]; 5 mg OD, Day 1): −17.0 (−44.8, 10.8) μIU h/mL
- Serum insulin AUC0–4h (after breakfast) ([1]; 5 mg OD, Day 7): 157 ± 82.5 μIU h/mL
- Serum insulin AUC0–4h (after breakfast) LS mean difference vs placebo (95% CI) ([1]; 5 mg OD, Day 7): −28.6 (−57.5, 0.198) μIU h/mL
- Body weight (24 h after dose) ([2]; 0.5 mg OD, Day 1): 67.49 ± 14.32 kg
- Body weight (24 h after dose) LS mean difference vs placebo (95% CI) ([2]; 0.5 mg OD, Day 1): −0.19 (−0.58, 0.20) kg
- Urine volume ([2]; 0.5 mg OD, Day 1): 3148.1 ± 718.5 mL/day
- Urine volume LS mean difference vs placebo (95% CI) ([2]; 0.5 mg OD, Day 1): 456.1 (−212.4, 1124.7) mL/day
- Water intake ([2]; 0.5 mg OD, Day 1): 2694.4 ± 936.4 mL/day
- Water intake LS mean difference vs placebo (95% CI) ([2]; 0.5 mg OD, Day 1): 131.8 (−455.8, 719.3) mL/day
- Body weight (24 h after dose) ([2]; 0.5 mg OD, Day 7): 66.76 ± 14.29 kg
- Body weight (24 h after dose) LS mean difference vs placebo (95% CI) ([2]; 0.5 mg OD, Day 7): −0.45 (−1.14, 0.24) kg
- Urine volume ([2]; 0.5 mg OD, Day 7): 3053.3 ± 1067.7 mL/day
- Urine volume LS mean difference vs placebo (95% CI) ([2]; 0.5 mg OD, Day 7): 303.5 (−208.4, 815.3) mL/day
- Water intake ([2]; 0.5 mg OD, Day 7): 2686.4 ± 929.1 mL/day
- Water intake LS mean difference vs placebo (95% CI) ([2]; 0.5 mg OD, Day 7): 175.8 (−407.1, 758.7) mL/day
- Body weight (24 h after dose) ([2]; 1 mg OD, Day 1): 71.71 ± 18.26 kg
- Body weight (24 h after dose) LS mean difference vs placebo (95% CI) ([2]; 1 mg OD, Day 1): −0.31 (−0.68, 0.07) kg
- Urine volume ([2]; 1 mg OD, Day 1): 3284.5 ± 653.4 mL/day
- Urine volume LS mean difference vs placebo (95% CI) ([2]; 1 mg OD, Day 1): 723.8 (76.7, 1370.9)* mL/day
- Water intake ([2]; 1 mg OD, Day 1): 3023.8 ± 883.4 mL/day
- Water intake LS mean difference vs placebo (95% CI) ([2]; 1 mg OD, Day 1): 513.6 (−54.5, 1081.7) mL/day
- Body weight (24 h after dose) ([2]; 1 mg OD, Day 7): 71.01 ± 18.10 kg
- Body weight (24 h after dose) LS mean difference vs placebo (95% CI) ([2]; 1 mg OD, Day 7): −0.51 (−1.17, 0.14) kg
- Urine volume ([2]; 1 mg OD, Day 7): 2421.0 ± 795.6 mL/day
- Urine volume LS mean difference vs placebo (95% CI) ([2]; 1 mg OD, Day 7): −174.9 (−670.3, 320.5) mL/day
- Water intake ([2]; 1 mg OD, Day 7): 2400.4 ± 583.5 mL/day
- Water intake LS mean difference vs placebo (95% CI) ([2]; 1 mg OD, Day 7): −64.4 (−628, 499.2) mL/day
- Body weight (24 h after dose) ([2]; 2.5 mg OD, Day 1): 67.43 ± 7.73 kg
- Body weight (24 h after dose) LS mean difference vs placebo (95% CI) ([2]; 2.5 mg OD, Day 1): −0.53 (−0.91, −0.15)* kg
- Urine volume ([2]; 2.5 mg OD, Day 1): 3511.4 ± 522.9 mL/day
- Urine volume LS mean difference vs placebo (95% CI) ([2]; 2.5 mg OD, Day 1): 643.8 (−3.8, 1291.3) mL/day
- Water intake ([2]; 2.5 mg OD, Day 1): 2964.0 ± 940.1 mL/day
- Water intake LS mean difference vs placebo (95% CI) ([2]; 2.5 mg OD, Day 1): −161.3 (−733.9, 411.4) mL/day
- Body weight (24 h after dose) ([2]; 2.5 mg OD, Day 7): 66.70 ± 7.84 kg
- Body weight (24 h after dose) LS mean difference vs placebo (95% CI) ([2]; 2.5 mg OD, Day 7): −0.79 (−1.46, −0.12)* kg
- Urine volume ([2]; 2.5 mg OD, Day 7): 3048.5 ± 868.2 mL/day
- Urine volume LS mean difference vs placebo (95% CI) ([2]; 2.5 mg OD, Day 7): 92.9 (−402.9, 588.6) mL/day
- Water intake ([2]; 2.5 mg OD, Day 7): 3049.1 ± 856.6 mL/day
- Water intake LS mean difference vs placebo (95% CI) ([2]; 2.5 mg OD, Day 7): 46.5 (−521.6, 614.6) mL/day
- Body weight (24 h after dose) ([2]; 5 mg OD, Day 1): 70.96 ± 9.34 kg
- Body weight (24 h after dose) LS mean difference vs placebo (95% CI) ([2]; 5 mg OD, Day 1): −0.74 (−1.11, −0.36)* kg
- Urine volume ([2]; 5 mg OD, Day 1): 3939.8 ± 1386.0 mL/day
- Urine volume LS mean difference vs placebo (95% CI) ([2]; 5 mg OD, Day 1): 888.4 (235, 1541.8)* mL/day
- Water intake ([2]; 5 mg OD, Day 1): 3256.8 ± 1581.7 mL/day
- Water intake LS mean difference vs placebo (95% CI) ([2]; 5 mg OD, Day 1): 17.3 (−558.5, 593.1) mL/day
- Body weight (24 h after dose) ([2]; 5 mg OD, Day 7): 70.24 ± 9.09 kg
- Body weight (24 h after dose) LS mean difference vs placebo (95% CI) ([2]; 5 mg OD, Day 7): −0.97 (−1.62, −0.31)* kg
- Urine volume ([2]; 5 mg OD, Day 7): 3471.4 ± 1204.5 mL/day
- Urine volume LS mean difference vs placebo (95% CI) ([2]; 5 mg OD, Day 7): 300.4 (−199.9, 800.6) mL/day
- Water intake ([2]; 5 mg OD, Day 7): 3141.0 ± 1387.3 mL/day
- Water intake LS mean difference vs placebo (95% CI) ([2]; 5 mg OD, Day 7): 38.5 (−532.7, 609.8) mL/day
- UGE as share of the maximal UGE value estimated using the E max model ([3]; 5 mg OD, after 7 days): approximately 85%
- E max (maximum change in UGE), estimate (95% CI) ([3]; values on Day 1 and 7): 119 g/day
- IC50 [4]: 2.26 nM
- IC50 for SGLT2 lower than IC50 for SGLT1 (selectivity) [5]: 1765 fold
- incidence of hypoglycemia ([6]; 0.5 mg, Phase II, 1/60): 1.7%
- incidence of AEs related to genital infection ([6]; 2.5 mg, Phase III, 1/79): 1.3%
- incidence of hypoglycemia ([6]; 2.5 mg, Phase III, 1/79): 1.3%
- incidence of pollakiuria ([6]; 2.5 mg, Phase III, 2/79): 2.5%
- incidence of AEs related to renal function ([6]; 2.5 mg, Phase III, 6/79): 7.6%
- body weight change ([6]; 2.5 mg, over 24 weeks of treatment): -2.70 kg
- incidence of hypoglycemia ([6]; 5 mg, Phase II, 1/54): 1.9%
- episodes of volume depletion ([6]; Phase III study): no episodes

— article PMC4415995 (Advances in Therapy, 2015)
